Patent publication US6482939B1, “Form vi 5,6-dichloro-2-(isopropylamino)-1-(β-l-ribofuranosyl)-1h-bezimimidazole” (SmithKline Beecham Corporation, priority 1998, dated 2002)

Tests used:
Assay type in all cases: physicochemical
[1] = Total volatile content by thermogravimetric analysis (TGA); settings: TA Instruments Hi-Res TGA 2950 thermogravimetric analyzer (FIG. 7)
Experimental: Accordingly, in a second aspect of the present invention there is provided the compound of formula (I) form VI, having a total volatile content of not more than 0.3% by weight (w/w) as determined by a TA Instruments Hi-Res TGA 2950 thermogravimetric analyzer (FIG. 7).
Differential scanning calorimetry (DSC) was performed on a TA Instruments DSC 2920 Differential Scanning Calorimetor equipped with a DSC auto sampler. Samples of 1 to 3 mg were crimped in standard aluminum pans with holes and heated from 25° C. to 250° C. at a rate of 10° C./minute under nitrogen purge. The percentage of total weight loss of the drug substance was determined on a TA Instruments Hi-Res TGA 2950 thermogravimetric analyzer (TGA) with a nitrogen purge.

[2] = Thermodynamic stability among crystalline forms
[3] = Gravimetric water vapor sorption (moisture sorption isotherm)
Experimental: Moisture adsorption/desorption studies were conducted on a VTI vacuum microbalance at 25° C. after drying the sample at 60° C. under vacuum. Moisture adsorption was monitored under vacuum from 0 to 95% relative humidity and desorption was monitored from 95% down to 5% relative humidity. The criteria for equilibrium at a given relative humidity was less than 3 μg of weight change in 18 minutes.

[4] = Stability samples stored at elevated temperature/relative humidity, examined for crystal form; settings: 80° C./50% RH, 60° C./75% RH, 60° C./50% RH and 40° C./75% RH, sealed conditions, 2 months

Row | total volatile content [1] | thermodynamic stability relative to other forms [2] | hygroscopicity [3] | water absorbed ([3]; equilibrated up to 95% relative humidity at ambient temperature (FIG. 8)) | SMILES | solid form stability on storage (conversion of crystal form) [4]
1 | not more than 0.3 % by weight (w/w) | most thermodynamically stable form | essentially non-hygroscopic | 0.3% | CC(C)Nc1nc2cc(Cl)c(Cl)cc2n1[C@H]1O[C@@H](CO)[C@H](O)[C@@H]1O [Form VI, 5,6-dichloro-2-(isopropylamino)-1-(β-L-ribofuranosyl)-1H-benzimidazole] | 
2 |  |  |  |  | CC(C)Nc1nc2cc(Cl)c(Cl)cc2n1[C@H]1O[C@@H](CO)[C@H](O)[C@@H]1O [ethanolate, 5,6-dichloro-2-(isopropylamino)-1-(β-L-ribofuranosyl)-1H-benzimidazole] | partially or completely converted to Form VI
